According to patent US10517867B2, “Posaconazole derivative, pharmaceutical composition and use thereof” (priority 2016, dated 2019):
Read-outs that look alike come from different tables or passages of the source.

What was measured:
[1] = test system: Candida albicans ATCC10231; assay: Candida albicans vaginitis in mice, intragastric administration; assay type: in vivo, KM mice; conditions: logarithm of the CFU values, mean ± SD of 20 mice; for vaginal fungal load of mice, day 15: 20 mg/kg intragastric once a day for 15 days; for vaginal fungal load of mice, day 3 / vaginal fungal load of mice, day 5 / vaginal fungal load of mice, day 7 / vaginal fungal load of mice, day 11: 20 mg/kg intragastric once a day
[2] = test system: Candida albicans ATCC10231; assay: Systemic fungal infection in mice, intragastric administration; assay type: in vivo, ICR mice; conditions: for responders at 20 mg/kg: Candida albicans, ATCC10231, po
[3] = test system: Aspergillus Fumigutus (AF) strains; assay: Aspergillus fumigatus keratitis in rats, intravenous administration; conditions: 10 mg/kg tail vein once daily for 5 days; mean ± SD of 10 rats
[4] = Determination of solubility in deionized water (HPLC, external standard); conditions: for solubility at 30 min: 25 °C, water, thermodynamic from solid
[5] = test system: Aspergillus fumigatus AF293; assay: Lung Aspergillus fumigatus infection in immunosuppressed mice, intravenous administration; conditions: for responders at 20 mg/kg: Aspergillus fumigatus, AF293, in Mus musculus, iv; for lung fungal load: mouse lung tissue, seven days later, mean ± SD; for lung fungal load / survival rate of mice, day 1 / survival rate of mice, day 2 / survival rate of mice, day 3 / survival rate of mice, day 4 / survival rate of mice, day 5 / survival rate of mice, day 6: 20 mg/kg tail vein once daily for 5 days
Method: ICR male mice were injected intraperitoneally with cyclophosphamide 150 mg/kg and injected subcutaneously with dexamethasone 150 mg/kg for 10 consecutive days. At the same time, the blood was taken to measure the changes of peripheral white blood cells and neutrophils, and mice with neutrophils consistently lower than 100/μl were selected as successfully immunosuppressed mice. Immediately after the last injection, the mice were anesthetized with ethyl ether, and mice were transferred from the initial state of excitement to inhibition. After their bodies were relaxed, the mice were immediately taken. Left hand was used to grasp the mouse to make it stand upright, the middle finger pressed the mouth so that it could breath only with the nose, and the ring finger gently pressed the abdomen to move the diaphragm muscle upward. 30 μl of conidia suspension (Aspergillus fumigatus AF293, 3×10^6 conidia) was sent to the nostrils of the anesthetized mice by a micropipette to allow spontaneous inhalation. After the mouse returned to normal breathing, it was returned to the cage. […] The death of the mice was observed and the survival time was recorded. Seven days later, the mice were sacrificed and their lung tissues were taken to observe the fungal loads of Aspergillus fumigatus in the lungs of the mice.

[6] = test system: Aspergillus fumigatus AF293; assay: Lung Aspergillus fumigatus infection in immunosuppressed mice, intragastric administration; conditions: mouse lung tissue, seven days later, 20 mg/kg intragastric once daily for 5 days, mean ± SD
Method: Aspergillus fumigatus AF293, from the Guangdong Provincial Microbial Culture Collection Center.
ICR male mice were injected intraperitoneally with cyclophosphamide 150 mg/kg and injected subcutaneously with dexamethasone 150 mg/kg for 10 consecutive days. At the same time, the blood was taken to measure the changes of peripheral white blood cells and neutrophils, and mice with neutrophils consistently lower than 100/μl were selected as successfully immunosuppressed mice. Immediately after the last injection, the mice were anesthetized with ethyl ether, and mice were transferred from the initial state of excitement to inhibition. After their bodies were relaxed, the mice were immediately taken. Left hand was used to grasp the mouse to make it stand upright, the middle finger pressed the mouth so that it could breath only with the nose, and the ring finger gently pressed the abdomen to move the diaphragm muscle upward. 30 μl of conidia suspension (Aspergillus fumigatus AF293, 3×10^6 conidia) was sent to the nostrils of the anesthetized mice by a micropipette to allow spontaneous inhalation. After the mouse returned to normal breathing, it was returned to the cage. […] Seven days later, the mice were sacrificed and their lung tissues were taken to observe the fungal loads of Aspergillus fumigatus in the lungs of the mice.

[7] = test system: Candida albicans ATCC10231; assay: Candida albicans vaginitis in mice, intravenous administration; conditions: logarithm of the CFU values, mean ± SD of 20 mice; for vaginal fungal load of mice, day 5: 20 mg/kg tail vein once a day for 5 days, day 5 after infection; for vaginal fungal load of mice, day 3: 20 mg/kg tail vein once a day, day 3 after infection
Method: KM mice, weighing 18-22 g, female, provided by Hubei Experimental Animal Center.
The standard strain of Candida albicans was purchased from the American Type Culture
Collection, strain number ATCC10231.
Prior to being infected with Candida albicans, animals in each group were given subcutaneous injections of 0.5 ml of estradiol benzoate (2 mg/ml) for 6 consecutive days to allow them to enter the estrus phase. Injections were continued once every 2 days until the completion of the experiment. After 6 days, 20 μl of Candida albicans solution in a concentration of 3.5×10^6 CFU/ml was injected vaginally into each mouse, causing a vaginal infection model. From the first day after infection, each group of animals was given 20 mg/kg of the corresponding drug (calculated as posaconazole) in the tail vein at an administration volume of 0.1 ml/10 g once a day for 5 consecutive days. The model group was given an equal volume of solvent (physiological saline). On the 3rd and 5th days after infection, the vagina of mice were wiped with sterile cotton swabs. The cotton swabs were soaked in 0.9 ml physiological saline. The fungal solutions were diluted to 10-fold increments to give a series of concentrations, and then 100 μl of each concentration of the bacteria solutions was taken and inoculated on Sabourand's dextrose agar solid medium containing 0.5% (W/V) chloramphenicol to observe the fungal load of Candida albicans on the vagina.

physchem = conditions: 25 °C, water, thermodynamic from solid
[8] = 24 h, read-out: survival rate of mice, day 1, 20 mg/kg intragastric once daily for 5 days, day 1
[9] = 48 h, read-out: survival rate of mice, day 2, 20 mg/kg intragastric once daily for 5 days, day 2
[10] = 72 h, read-out: survival rate of mice, day 3, 20 mg/kg intragastric once daily for 5 days, day 3
[11] = 96 h, read-out: survival rate of mice, day 4, 20 mg/kg intragastric once daily for 5 days, day 4
[12] = 120 h, read-out: survival rate of mice, day 5, 20 mg/kg intragastric once daily for 5 days, day 5
[13] = 144 h, read-out: survival rate of mice, day 6, 20 mg/kg intragastric once daily for 5 days, day 6
[14] = 168 h, read-out: survival rate of mice, day 7, 20 mg/kg intragastric once daily for 5 days, day 7
[15] = 24 h, read-out: survival rate of mice, day 1, 20 mg/kg tail vein once daily for 5 days, day 1
[16] = 48 h, read-out: survival rate of mice, day 2, 20 mg/kg tail vein once daily for 5 days, day 2
[17] = 72 h, read-out: survival rate of mice, day 3, 20 mg/kg tail vein once daily for 5 days, day 3
[18] = 96 h, read-out: survival rate of mice, day 4, 20 mg/kg tail vein once daily for 5 days, day 4
[19] = 120 h, read-out: survival rate of mice, day 5, 20 mg/kg tail vein once daily for 5 days, day 5
[20] = 144 h, read-out: survival rate of mice, day 6, 20 mg/kg tail vein once daily for 5 days, day 6
[21] = 168 h, read-out: survival rate of mice, day 7, 20 mg/kg tail vein once daily for 5 days, day 7

CC[C@@H]([C@H](C)OC(=O)[C@@H](N)CO)n1ncn(-c2ccc(N3CCN(c4ccc(OC[C@@H]5CO[C@@](Cn6c[n+](C(C)OC(=O)N(C)c7ncccc7COC(=O)[C@@H](N)CCCN)cn6)(c6ccc(F)cc6F)C5)cc4)CC3)cc2)c1=O (stereo partly shown) [ST0010]
vaginal fungal load of mice, day 15 [1]: 2.75 ± 0.41
vaginal fungal load of mice, day 3 [1]: 4.21 ± 0.32
vaginal fungal load of mice, day 5 [1]: 4.38 ± 0.41
vaginal fungal load of mice, day 7 [1]: 3.97 ± 0.55
vaginal fungal load of mice, day 11 [1]: 3.37 ± 0.28
responders at 20 mg/kg [2, 8]: 100%
responders at 20 mg/kg [2, 9]: 100%
responders at 20 mg/kg [2, 10]: 90%
responders at 20 mg/kg [2, 11]: 70%
responders at 20 mg/kg [2, 12]: 70%
responders at 20 mg/kg [2, 13]: 60%
responders at 20 mg/kg [2, 14]: 60%
Amount of active fungi in cornea at day 7 [3]: 3.93 ± 0.73 10^3 CFU/ml
solubility at 30 min [4]: > 50 mg/mL
responders at 20 mg/kg [5, 15]: 100%
responders at 20 mg/kg [5, 16]: 100%
responders at 20 mg/kg [5, 17]: 90%
responders at 20 mg/kg [5, 18]: 80%
responders at 20 mg/kg [5, 19]: 80%
responders at 20 mg/kg [5, 20]: 70%
responders at 20 mg/kg [5, 21]: 60%
lung fungal load [5]: 2.75 ± 0.37 10^4 CFU/ml
lung fungal load [6]: 3.40 ± 0.63 10^4 CFU/ml

CC[C@@H]([C@H](C)O)n1ncn(-c2ccc(N3CCN(c4ccc(OC[C@@H]5CO[C@@](Cn6c[n+](C(C)OC(=O)N(C)c7ccccc7COC(=O)[C@@H](N)CCCN)cn6)(c6ccc(F)cc6F)C5)cc4)CC3)cc2)c1=O (stereo partly shown) [ST0008]
vaginal fungal load of mice, day 15 [1]: 2.68 ± 0.18
vaginal fungal load of mice, day 3 [1]: 4.21 ± 0.32
vaginal fungal load of mice, day 5 [1]: 4.34 ± 0.47
vaginal fungal load of mice, day 7 [1]: 3.85 ± 0.35
vaginal fungal load of mice, day 11 [1]: 3.31 ± 0.29
responders at 20 mg/kg [2, 8]: 100%
responders at 20 mg/kg [2, 9]: 90%
responders at 20 mg/kg [2, 10]: 90%
responders at 20 mg/kg [2, 11]: 80%
responders at 20 mg/kg [2, 12]: 80%
responders at 20 mg/kg [2, 13]: 60%
responders at 20 mg/kg [2, 14]: 60%
vaginal fungal load of mice, day 5 [7]: 3.86 ± 0.21
vaginal fungal load of mice, day 3 [7]: 4.05 ± 0.25
Amount of active fungi in cornea at day 7 [3]: 2.59 ± 0.37 10^3 CFU/ml
solubility at 30 min [4]: > 50 mg/mL
responders at 20 mg/kg [5, 15]: 100%
responders at 20 mg/kg [5, 16]: 100%
responders at 20 mg/kg [5, 17]: 100%
responders at 20 mg/kg [5, 18]: 90%
responders at 20 mg/kg [5, 19]: 80%
responders at 20 mg/kg [5, 20]: 80%
responders at 20 mg/kg [5, 21]: 70%
lung fungal load [5]: 2.07 ± 0.42 10^4 CFU/ml
lung fungal load [6]: 3.49 ± 0.64 10^4 CFU/ml

CC[C@@H]([C@H](C)O)n1ncn(-c2ccc(N3CCN(c4ccc(OC[C@@H]5CO[C@@](Cn6c[n+](C(C)OC(=O)OP(=O)(O)O)cn6)(c6ccc(F)cc6F)C5)cc4)CC3)cc2)c1=O.[Na+].[Na+] (stereo partly shown) [ST0039]
Solubility (physchem): > 50 mg/mL

CC[C@@H]([C@H](C)OP(=O)(O)O)n1ncn(-c2ccc(N3CCN(c4ccc(OC[C@@H]5CO[C@@](Cn6c[n+](C(C)OC(=O)N(C)c7ncccc7COC(=O)[C@@H](N)CCCN)cn6)(c6ccc(F)cc6F)C5)cc4)CC3)cc2)c1=O (stereo partly shown) [ST0009]
vaginal fungal load of mice, day 5 [7]: 3.89 ± 0.54
vaginal fungal load of mice, day 3 [7]: 4.05 ± 0.23
Amount of active fungi in cornea at day 7 [3]: 2.76 ± 0.45 10^3 CFU/ml
solubility at 30 min [4]: > 50 mg/mL
responders at 20 mg/kg [5, 15]: 100%
responders at 20 mg/kg [5, 16]: 100%
responders at 20 mg/kg [5, 17]: 100%
responders at 20 mg/kg [5, 18]: 90%
responders at 20 mg/kg [5, 19]: 80%
responders at 20 mg/kg [5, 20]: 80%
responders at 20 mg/kg [5, 21]: 70%
lung fungal load [5]: 2.03 ± 0.46 10^4 CFU/ml
lung fungal load [6]: 3.91 ± 0.85 10^4 CFU/ml

CC[C@@H]([C@H](C)O)n1ncn(-c2ccc(N3CCN(c4ccc(OC[C@@H]5CO[C@@](Cn6c[n+](C(C)OC(=O)N(C)c7ncccc7COC(=O)[C@@H](N)CCCN)cn6)(c6ccc(F)cc6F)C5)cc4)CC3)cc2)c1=O (stereo partly shown) [ST0007]
vaginal fungal load of mice, day 15 ([1]; 20 mg/kg): 2.87 ± 0.24
vaginal fungal load of mice, day 3 ([1]; 20 mg/kg): 4.35 ± 0.54
vaginal fungal load of mice, day 5 ([1]; 20 mg/kg): 4.47 ± 0.65
vaginal fungal load of mice, day 7 ([1]; 20 mg/kg): 4.23 ± 0.41
vaginal fungal load of mice, day 11 ([1]; 20 mg/kg): 3.81 ± 0.27
vaginal fungal load of mice, day 5 ([7]; 20 mg/kg): 3.87 ± 0.31
vaginal fungal load of mice, day 3 ([7]; 20 mg/kg): 4.08 ± 0.52
Amount of active fungi in cornea at day 7 [3]: 1.87 ± 0.35 10^3 CFU/ml
solubility at 30 min [4]: > 50 mg/mL
survival rate of mice, day 1 ([5]; day 1): 100%
survival rate of mice, day 2 ([5]; day 2): 100%
survival rate of mice, day 3 ([5]; day 3): 100%
survival rate of mice, day 4 ([5]; day 4): 100%
survival rate of mice, day 5 ([5]; day 5): 90%
survival rate of mice, day 6 ([5]; day 6): 90%
lung fungal load ([5]; 20 mg/kg): 1.68 ± 0.31 10^4 CFU/ml
lung fungal load ([6]; 20 mg/kg): 4.12 ± 0.87 10^4 CFU/ml

CC[C@@H]([C@H](C)O)n1ncn(-c2ccc(N3CCN(c4ccc(OC[C@@H]5CO[C@@](Cn6c[n+](C(C)OC(=O)N(C)c7ncccc7COC(=O)[C@@H](N)CCCN)cn6)(c6ccc(F)cc6F)C5)cc4)CC3)cc2)c1=O (stereo partly shown) [ST0011]
vaginal fungal load of mice, day 15 ([1]; 20 mg/kg): 2.81 ± 0.27
vaginal fungal load of mice, day 3 ([1]; 20 mg/kg): 4.18 ± 0.27
vaginal fungal load of mice, day 5 ([1]; 20 mg/kg): 4.35 ± 0.47
vaginal fungal load of mice, day 7 ([1]; 20 mg/kg): 3.85 ± 0.67
vaginal fungal load of mice, day 11 ([1]; 20 mg/kg): 3.29 ± 0.20
survival rate of mice, day 1 ([2]; 20 mg/kg intragastric once daily for 5 days, day 1): 100%
survival rate of mice, day 2 ([2]; 20 mg/kg intragastric once daily for 5 days, day 2): 100%
survival rate of mice, day 3 ([2]; 20 mg/kg intragastric once daily for 5 days, day 3): 90%
survival rate of mice, day 4 ([2]; 20 mg/kg intragastric once daily for 5 days, day 4): 80%
survival rate of mice, day 5 ([2]; 20 mg/kg intragastric once daily for 5 days, day 5): 70%
survival rate of mice, day 6 ([2]; 20 mg/kg intragastric once daily for 5 days, day 6): 60%
survival rate of mice, day 7 ([2]; 20 mg/kg intragastric once daily for 5 days, day 7): 60%
vaginal fungal load of mice, day 5 ([7]; 20 mg/kg): 3.75 ± 0.47
vaginal fungal load of mice, day 3 ([7]; 20 mg/kg): 4.09 ± 0.39
Amount of active fungi in cornea at day 7 [3]: 1.79 ± 0.44 10^3 CFU/ml
Solubility ([4]; 25±2° C., after 30 min): >50 mg/mL
survival rate of mice, day 1 ([5]; day 1): 100%
survival rate of mice, day 2 ([5]; day 2): 100%
survival rate of mice, day 3 ([5]; day 3): 100%
survival rate of mice, day 4 ([5]; day 4): 100%
survival rate of mice, day 5 ([5]; day 5): 90%
survival rate of mice, day 6 ([5]; day 6): 90%
lung fungal load ([5]; 20 mg/kg): 1.46 ± 0.27 10^4 CFU/ml
lung fungal load ([6]; 20 mg/kg): 3.47 ± 0.71 10^4 CFU/ml
